According to US20230096766A1, “AMINO ACID HAVING FUNCTIONAL GROUP CAPABLE OF INTERMOLECULAR HYDROGEN BONDING, PEPTIDE COMPOUND CONTAINING SAME AND METHOD FOR PRODUCTION THEREOF” (Chugai Seiyaku Kabushiki Kaisha, priority 2018, published 2023):
*1 amine or outer side, *2 acyl side, *3 side chain or, on linkers, in order; H or OH if unused. Where a SMILES comes first, the peptide text is derived from it. Bridges are numbered along the chain shown (N, C = ends). [ ]: non-standard residue; d: D form. The star is where a group is joined. ξ: configuration not given here. Phe(3-OMe,4-CONHMs) = COc1cc(C[C@H](N)C(=O)O)ccc1C(=O)NS(C)(=O)=O; NMePhe(3-Cl) = CN[C@@H](Cc1cccc(Cl)c1)C(=O)O; Tyr(3-OMe) = COc1cc(C[C@H](N)C(=O)O)ccc1O; NMeF = CN[C@@H](Cc1ccccc1)C(=O)O; NMeGABA = CN(CCCC(=O)[*:2])[*:1]; NMeI = CC[C@H](C)[C@H](NC)C(=O)O; ξThr(3R) = C[C@@H](O)C(N)C(=O)O; CH2CH(OH)CF3 = OC(C*)C(F)(F)F; NMeL = CN[C@@H](CC(C)C)C(=O)O; NMeV = CN[C@H](C(=O)O)C(C)C; NMeA = CN[C@@H](C)C(=O)O; Piperidide = C1CCN(*)CC1; Abu = CC[C@H](N)C(=O)O; X8 = C1COC[C@@H](C*)N1; NBuGly = CCCCNCC(=O)O; Isopentyl = CC(C)CC*; NPrGly = CCCNCC(=O)O; X3 = C[C@H](O)C*; Sar = CNCC(=O)O; tBu = CC(C)(C)*

assay: in vitro; details: human, Caco-2, Caco-2 (cm/sec)

Structure (SMILES) | Papp [×10⁻⁶ cm/s]
CC(C)C[C@H]1C(=O)N[C@@H](COC(C)(C)C)C(=O)N(C)[C@@H](Cc2ccccc2)C(=O)N(C)[C@@H](C(C)C)C(=O)N[C@H](C(=O)N2CCCCC2)CC(=O)N[C@H](C(C)C)C(=O)N(C)[C@@H](C)C(=O)N[C@@H](C(C)C)C(=O)N(C)[C@@H](CC(C)C)C(=O)N[C@@H](Cc2ccc(O)cc2)C(=O)N(C)CC(=O)N1C [pd121] ([dV][NMeA]V[NMeL]Y[Sar][NMeL]S(tBu)[NMeF][NMeV]D-Piperidide; lactam N-11) | 1
CCCN1CC(=O)N(C)[C@@H](CC(C)C)C(=O)N[C@H](C(=O)N2CCCCC2)CC(=O)N(C)[C@@H](C)C(=O)N[C@@H](COC[C@H](C)O)C(=O)N(C)[C@@H](CC(C)C)C(=O)N(C)[C@@H](Cc2cccc(Cl)c2)C(=O)N[C@@H](CC(C)C)C(=O)N(C)[C@@H](Cc2ccccc2)C(=O)N(C)[C@@H]([C@@H](C)CC)C(=O)N[C@@H]([C@@H](C)O)C1=O [AP65] ([NMeA]S(X3)[NMeL][NMePhe(3-Cl)]L[NMeF][NMeI]T[NPrGly][NMeL]D-Piperidide; lactam N-11) | 1.2
CC(C)CCOC[C@@H]1NC(=O)[C@H](Cc2cccc(Cl)c2)N(C)C(=O)[C@H](Cc2ccccc2)N(C)C(=O)[C@H](COC[C@H](C)O)NC(=O)[C@H](CC(C)C)N(C)C(=O)CCCN(C)C(=O)C[C@@H](C(=O)N2CCCCC2)NC(=O)[C@H](CC(C)C)N(C)C(=O)[C@H](CC(C)C)N(C)C(=O)[C@H]([C@@H](C)O)NC(=O)[C@H](CC(C)C)N(C)C1=O [AP63] ([NMeGABA][NMeL]S(X3)[NMeF][NMePhe(3-Cl)]S(Isopentyl)[NMeL]T[NMeL][NMeL]D-Piperidide; lactam N-11) | 0.14
CC[C@@H]1NC(=O)[C@H](CC(C)C)N(C)C(=O)[C@H](Cc2ccccc2)N(C)C(=O)CN(C)C(=O)[C@H](Cc2ccc(C(=O)NS(C)(=O)=O)c(OC)c2)NC(=O)[C@H](CC(C)C)N(C)C(=O)[C@H](C(C)C)NC(=O)[C@H](CC(C)C)N(C)C(=O)CN(C)C(=O)C[C@@H](C(=O)N2CCCCC2)NC(=O)[C@H](CC(C)C)N(C)C1=O [AP143] ([Sar][NMeL]V[NMeL][Phe(3-OMe,4-CONHMs)][Sar][NMeF][NMeL][Abu][NMeL]D-Piperidide; lactam N-11) | 0.13
COc1cc(C[C@@H]2NC(=O)[C@H](CC(C)C)N(C)C(=O)CCCN(C)C(=O)C[C@@H](C(=O)N3CCCCC3)NC(=O)[C@H](CC(C)C)N(C)C(=O)[C@H](CC(C)C)N(C)C(=O)[C@H]([C@@H](C)O)NC(=O)[C@H](CC(C)C)N(C)C(=O)[C@H](COC(C)(C)C)NC(=O)[C@H](Cc3ccccc3)N(C)C(=O)[C@H](CC(C)C)N(C)C2=O)ccc1O [Compound E04] ([NMeGABA][NMeL][Tyr(3-OMe)][NMeL][NMeF]S(tBu)[NMeL]T[NMeL][NMeL]D-Piperidide; lactam N-11) | 0.4
CCCCN1CC(=O)N(C)[C@@H](Cc2ccccc2)C(=O)N(C)[C@@H](CC(C)C)C(=O)N[C@@H](C(C)C)C(=O)N(C)[C@@H](CC(C)C)C(=O)N[C@H](C(=O)N2CCCCC2)CC(=O)N(C)CC(=O)N(C)[C@@H](CC(C)C)C(=O)N[C@@H](COC[C@@H]2COCCN2)C(=O)N(C)[C@@H](CC(C)C)C(=O)N[C@@H]([C@@H](C)O)C1=O [AP244] ([Sar][NMeL]S(X8)[NMeL]T[NBuGly][NMeF][NMeL]V[NMeL]D-Piperidide; lactam N-11) | 0.46

same assay, conditions: human, Caco-2, Caco-2 (cm/sec) Papp

Structure (SMILES) | Papp [×10⁻⁶ cm/s]
CC(C)C[C@H]1C(=O)N(C)[C@@H](Cc2ccccc2)C(=O)N(C)[C@@H](CC(C)C)C(=O)N[C@H](C(=O)N(C)[C@@H](Cc2ccccc2)C(=O)N[C@@H](Cc2ccccc2)C(=O)N2CCCCC2)CC(=O)N[C@H](C(C)C)C(=O)N[C@@H](C)C(=O)N[C@@H]([C@@H](C)O)C(=O)N(C)[C@@H](C)C(=O)N[C@@H](Cc2ccccc2)C(=O)N1C [pd241] ([dV]AT[NMeA]F[NMeL][NMeF][NMeL]D[NMeF]F-Piperidide; lactam N-9) | 0.058
CC(C)C[C@@H]1NC(=O)[C@H](Cc2ccccc2)N(C)C(=O)C([C@@H](C)O)NC(=O)[C@H](Cc2ccccc2)N(C)C(=O)CN(C)C(=O)[C@H](Cc2ccccc2)NC(=O)[C@H](CC(C)C)N(C)C(=O)[C@H](CC(C)C)NC(=O)[C@H](Cc2ccccc2)N(C)C(=O)[C@H](C)N(C)C(=O)C[C@@H](C(=O)N2CCCCC2)NC1=O (stereo partly drawn) [pd231] ([NMeA][NMeF]L[NMeL]F[Sar][NMeF][ξThr(3R)][NMeF]LD-Piperidide; lactam N-11) | 0.21

same assay, conditions: human, Caco-2, Caco-2 (membrane permeability)

Structure (SMILES) | Papp [×10⁻⁶ cm/s]
CCCN1CC(=O)N(C)[C@@H](CC(C)C)C(=O)N[C@H](C(=O)N2CCCCC2)CC(=O)N(C)[C@@H](CC(C)C)C(=O)N[C@@H](CCC(=O)NC)C(=O)N(C)[C@@H](CC(C)C)C(=O)N(C)[C@@H](Cc2ccccc2)C(=O)N[C@@H](CC(C)C)C(=O)N(C)[C@@H](Cc2ccccc2)C(=O)N(C)[C@@H]([C@@H](C)CC)C(=O)N[C@@H]([C@@H](C)O)C1=O [Compound J03] ([NMeL]E(NHMe)[NMeL][NMeF]L[NMeF][NMeI]T[NPrGly][NMeL]D-Piperidide; lactam N-11) | 0.21
CC[C@H](C)[C@H]1C(=O)N[C@@H]([C@@H](C)O)C(=O)N(C)CC(=O)N(C)[C@@H](CC(C)C)C(=O)N[C@H](C(=O)N2CCCCC2)CC(=O)N(C)[C@@H](C(C)C)C(=O)N[C@@H](CC(C)C)C(=O)N(C)[C@@H](CC(C)C)C(=O)N(C)[C@@H](Cc2ccccc2)C(=O)N[C@@H](COCC(O)C(F)(F)F)C(=O)N(C)[C@@H](Cc2ccccc2)C(=O)N1C (stereo partly drawn) [Compound C05] ([NMeV]L[NMeL][NMeF]S(CH2CH(OH)CF3)[NMeF][NMeI]T[Sar][NMeL]D-Piperidide; lactam N-11) | 0.57
